Structures can show the parent of a compound that is named as a salt.
Tests used:
mutant G2019S LRRK2 = mutant G2019S LRRK2 (Homo sapiens, UniProt Q5S007, G2019S); experiment: LRRK2 Assay, Format 2 (Lantha Screen), G2019S mutant; assay type: biochemical; parameters: purchased Invitrogen PV4881; conditions: geometric mean of 2-4 determinations unless otherwise indicated (a: >=5; b: single determination); read-out: LRRK2, Format 2 G2019S IC50
[1] = biological target: T1, GST-tagged truncated LRRK2 (Homo sapiens, UniProt Q5S007); experiment: LRRK2 Assay, Format 2 (Lantha Screen), WT; assay type: biochemical; conditions: geometric mean of 2-4 determinations unless otherwise indicated (a: >=5; b: single determination)
T1 construct: GST-tagged truncated LRRK2 from Invitrogen (Cat # PV4874); GST; purchased Invitrogen PV4874
T1 sequence (Q5S007 970-2527 limits assumed): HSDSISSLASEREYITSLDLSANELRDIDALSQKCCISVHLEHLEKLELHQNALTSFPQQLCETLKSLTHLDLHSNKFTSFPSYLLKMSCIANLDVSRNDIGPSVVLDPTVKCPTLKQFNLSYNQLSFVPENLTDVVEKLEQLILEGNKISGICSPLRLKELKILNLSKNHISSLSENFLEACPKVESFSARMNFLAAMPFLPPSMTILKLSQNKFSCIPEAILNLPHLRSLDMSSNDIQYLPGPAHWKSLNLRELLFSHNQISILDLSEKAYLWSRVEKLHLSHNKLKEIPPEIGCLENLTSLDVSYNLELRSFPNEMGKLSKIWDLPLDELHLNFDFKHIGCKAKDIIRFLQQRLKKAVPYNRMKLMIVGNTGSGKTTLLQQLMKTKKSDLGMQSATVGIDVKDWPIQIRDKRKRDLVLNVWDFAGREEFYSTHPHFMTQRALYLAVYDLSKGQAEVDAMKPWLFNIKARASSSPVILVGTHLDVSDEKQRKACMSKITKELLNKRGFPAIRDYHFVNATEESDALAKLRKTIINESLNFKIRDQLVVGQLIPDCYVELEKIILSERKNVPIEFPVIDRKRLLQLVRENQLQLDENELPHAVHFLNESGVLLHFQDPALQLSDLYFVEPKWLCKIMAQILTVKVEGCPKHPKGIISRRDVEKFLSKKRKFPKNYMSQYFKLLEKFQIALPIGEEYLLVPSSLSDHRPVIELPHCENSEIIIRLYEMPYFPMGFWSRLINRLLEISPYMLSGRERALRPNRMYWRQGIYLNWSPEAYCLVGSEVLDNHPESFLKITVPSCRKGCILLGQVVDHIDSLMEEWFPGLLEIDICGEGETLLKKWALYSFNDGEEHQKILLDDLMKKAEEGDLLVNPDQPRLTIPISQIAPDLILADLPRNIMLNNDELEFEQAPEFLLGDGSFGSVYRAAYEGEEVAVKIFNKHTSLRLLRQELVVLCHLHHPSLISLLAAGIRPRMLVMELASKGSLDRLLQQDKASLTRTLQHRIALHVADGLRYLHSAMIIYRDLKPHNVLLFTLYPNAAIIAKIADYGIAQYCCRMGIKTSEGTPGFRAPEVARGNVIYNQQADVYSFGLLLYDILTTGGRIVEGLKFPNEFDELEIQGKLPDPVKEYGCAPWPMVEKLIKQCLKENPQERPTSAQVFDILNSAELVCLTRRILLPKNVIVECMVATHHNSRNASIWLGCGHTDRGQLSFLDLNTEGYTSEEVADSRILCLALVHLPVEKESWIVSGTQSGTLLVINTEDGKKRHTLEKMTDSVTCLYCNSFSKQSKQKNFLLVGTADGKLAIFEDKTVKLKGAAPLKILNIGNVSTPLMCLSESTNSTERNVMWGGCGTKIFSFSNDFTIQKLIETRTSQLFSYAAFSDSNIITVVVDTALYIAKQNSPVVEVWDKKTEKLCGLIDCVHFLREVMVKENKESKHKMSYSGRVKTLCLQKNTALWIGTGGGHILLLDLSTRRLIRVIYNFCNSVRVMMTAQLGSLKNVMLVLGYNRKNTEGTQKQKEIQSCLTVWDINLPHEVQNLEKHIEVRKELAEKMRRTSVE

mutant G2019S LRRK2, sequence (Q5S007 970-2527 G2019S limits assumed): as the sequence (Q5S007 970-2527 limits assumed) above, with G1050S counted along it

SMILES	IC50 (mutant G2019S LRRK2) [nM]	IC50 [1] [nM]
Cc1cc(Cc2nc3cnc4ccc(C#N)cc4c3n2C2CCCC2)no1 [Example 152, 1-cyclopentyl-2-[(5-methyl-1,2-oxazol-3-yl)methyl]-1H-imidazo[4,5-c]quinoline-8-carbonitrile, formate salt]	40.8	25.1
C[C@@H]1C[C@H](n2c(Cc3nc4ccccc4o3)nc3cnc4ccc(C#N)cc4c32)CCO1 [Example 153, 2-(1,3-benzoxazol-2-ylmethyl)-1-[(2R,4R)-2-methyltetrahydro-2H-pyran-4-yl]-1H-imidazo[4,5-c]quinoline-8-carbonitrile, formate salt]	5.34	6.04
C[C@@H]1C[C@H](n2c(Cc3noc4ccccc34)nc3cnc4ccc(C#N)cc4c32)CCO1 [Example 154, 2-(1,2-benzoxazol-3-ylmethyl)-1-[(2R,4R)-2-methyltetrahydro-2H-pyran-4-yl]-1H-imidazo[4,5-c]quinoline-8-carbonitrile, formate salt]	3.71	4.01
Cc1nc(Cc2nc3cnc4ccc(C#N)cc4c3n2[C@@H]2CCO[C@H](C)C2)c(C2CC2)o1 [Example 155, 2-[(5-cyclopropyl-2-methyl-1,3-oxazol-4-yl)methyl]-1-[(2R,4R)-2-methyltetrahydro-2H-pyran-4-yl]-1H-imidazo[4,5-c]quinoline-8-carbonitrile, formate salt]	8.99	11.8
CCc1nn2cc(Cc3nc4cnc5ccc(C#N)cc5c4n3[C@@H]3CCO[C@H](C)C3)nc2s1 [Example 156, 2-[(2-ethylimidazo[2,1-b][1,3,4]thiadiazol-6-yl)methyl]-1-[(2R,4R)-2-methyltetrahydro-2H-pyran-4-yl]-1H-imidazo[4,5-c]quinoline-8-carbonitrile, formate salt]	4.31	4.78
Cc1nn2cc(Cc3nc4cnc5ccc(C#N)cc5c4n3[C@@H]3CCO[C@H](C)C3)nc2s1 [Example 157, 2-[(2-methylimidazo[2,1-b][1,3,4]thiadiazol-6-yl)methyl]-1-[(2R,4R)-2-methyltetrahydro-2H-pyran-4-yl]-1H-imidazo[4,5-c]quinoline-8-carbonitrile, formate salt]	3.79	3.96
C[C@@H]1C[C@H](n2c(Cc3cn4ccccc4n3)nc3cnc4ccc(C#N)cc4c32)CCO1 [Example 158, 2-(imidazo[1,2-a]pyridin-2-ylmethyl)-1-[(2R,4R)-2-methyltetrahydro-2H-pyran-4-yl]-1H-imidazo[4,5-c]quinoline-8-carbonitrile, formate salt]	5.22	6.01
Cc1ccn2cc(Cc3nc4cnc5ccc(Cl)cc5c4n3[C@@H]3CCO[C@H](C)C3)nc2n1 [Example 159, 8-chloro-2-[(7-methylimidazo[1,2-a]pyrimidin-2-yl)methyl]-1-[(2R,4R)-2-methyltetrahydro-2H-pyran-4-yl]-1H-imidazo[4,5-c]quinoline]	6.15	6.06
C[C@@H]1C[C@H](n2c(Cn3ccc(C4CC4)n3)nc3cnc4ccc(Cl)cc4c32)CCO1 [Example 160, 8-chloro-2-[(3-cyclopropyl-1H-pyrazol-1-yl)methyl]-1-[(2R,4R)-2-methyltetrahydro-2H-pyran-4-yl]-1H-imidazo[4,5-c]quinoline, formate salt]	6.36	6.23
C[C@@H]1C[C@H](n2c(Cn3nccn3)nc3cnc4ccc(Cl)cc4c32)CCO1 [Example 161, 8-chloro-1-[(2R,4R)-2-methyltetrahydro-2H-pyran-4-yl]-2-(2H-1,2,3-triazol-2-ylmethyl)-1H-imidazo[4,5-c]quinoline, formate salt]	6.94	6.39
Cc1nn2cc(Cc3nc4cnc5ccc(Cl)cc5c4n3[C@@H]3CCO[C@H](C)C3)nc2s1 [Example 162, 8-chloro-2-[(2-methylimidazo[2,1-b][1,3,4]thiadiazol-6-yl)methyl]-1-[(2R,4R)-2-methyltetrahydro-2H-pyran-4-yl]-1H-imidazo[4,5-c]quinoline, formate salt]	3.83	3.86
C[C@@H]1C[C@H](n2c(Cc3ccn(C)n3)nc3cnc4ccc(Cl)cc4c32)CCO1 [Example 163, 8-chloro-2-[(1-methyl-1H-pyrazol-3-yl)methyl]-1-[(2R,4R)-2-methyltetrahydro-2H-pyran-4-yl]-1H-imidazo[4,5-c]quinoline]	7.25	7.01
C[C@@H]1C[C@H](n2c(Cc3cc(=O)n4ccccc4n3)nc3cnc4ccc(Cl)cc4c32)CCO1 [Example 164, 2-({8-chloro-1-[(2R,4R)-2-methyltetrahydro-2H-pyran-4-yl]-1H-imidazo[4,5-c]quinolin-2-yl}methyl)-4H-pyrido[1,2-a]pyrimidin-4-one, formate salt]	6.18	5.88
C[C@@H]1C[C@H](n2c(Cc3ccc4nnnn4n3)nc3cnc4ccc(Cl)cc4c32)CCO1 [Example 165, 8-chloro-1-[(2R,4R)-2-methyltetrahydro-2H-pyran-4-yl]-2-(tetrazolo[1,5-b]pyridazin-6-ylmethyl)-1H-imidazo[4,5-c]quinoline]	7.44	6.75
C[C@@H]1C[C@H](n2c(Cc3cc4n(n3)CCC4)nc3cnc4ccc(Cl)cc4c32)CCO1 [Example 166, 8-chloro-2-(5,6-dihydro-4H-pyrrolo[1,2-b]pyrazol-2-ylmethyl)-1-[(2R,4R)-2-methyltetrahydro-2H-pyran-4-yl]-1H-imidazo[4,5-c]quinoline, trifluoroacetate salt]	7.38	7.35
C[C@@H]1C[C@H](n2c(Cc3cn4ccccc4n3)nc3cnc4ccc(Cl)cc4c32)CCO1 [Example 167, 8-chloro-2-(imidazo[1,2-a]pyridin-2-ylmethyl)-1-[(2R,4R)-2-methyltetrahydro-2H-pyran-4-yl]-1H-imidazo[4,5-c]quinoline, trifluoroacetate salt]	8.43	8.26
C[C@@H]1C[C@H](n2c(C(=O)c3ccon3)nc3cnc4ccc(Cl)cc4c32)CCO1 [Example 174, {8-chloro-1-[(2R,4R)-2-methyltetrahydro-2H-pyran-4-yl]-1H-imidazo[4,5-c]quinolin-2-yl}(1,2-oxazol-3-yl)methanone]	19.6	16.8
C[C@@H]1C[C@H](n2c(Cn3cc(C(F)(F)F)nn3)nc3cnc4ccc(C#N)cc4c32)CCO1 [Example 175, 1-[(2R,4R)-2-methyltetrahydro-2H-pyran-4-yl]-2-{[4-(trifluoromethyl)-1H-1,2,3-triazol-1-yl]methyl}-1H-imidazo[4,5-c]quinoline-8-carbonitrile]	12.2	13.4
C[C@@H]1C[C@H](n2c(Cc3ccncn3)nc3cnc4ccc(C(F)(F)F)cc4c32)CCO1 [Example 178, 1-[(2R,4R)-2-methyltetrahydro-2H-pyran-4-yl]-2-(pyrimidin-4-ylmethyl)-8-(trifluoromethyl)-1H-imidazo[4,5-c]quinoline]	3.32	5.64
COc1cnn(Cc2nc3cnc4ccc(F)cc4c3n2[C@@H]2CCO[C@H](C)C2)c1 [Example 179, 8-fluoro-2-[(4-methoxy-1H-pyrazol-1-yl)methyl]-1-[(2R,4R)-2-methyltetrahydro-2H-pyran-4-yl]-1H-imidazo[4,5-c]quinoline]	12.6	14
